Measurements reported in article PMC6637749 (Journal of medicinal chemistry, 2018).

How the values were obtained:
Bovine brain tubulin = Bovine brain tubulin (Bos taurus, UniProt P81947+Q6B856); experiment: Tubulin polymerization assay; assay type: biochemical; conditions: 10 μM compound, absorbance at 340 nm, 37 °C; vehicle control Vmax = 27
A375 melanoma xenograft = assay type: in vivo; conditions: doses up to 30 mg/kg i.p., nude mice
[1] = tested on: panel of melanoma cell lines (A375, M14, RPMI7951); experiment: Antiproliferative activity, panel of melanoma cell lines; assay type: cell-based, human; conditions: for IC50: Homo sapiens, 72 h, read-out: IC50 values, range over the melanoma cell lines
[2] = tested on: docetaxel-resistant DU145/TxR prostate cancer cell line; experiment: Cytotoxicity; assay type: cell-based; conditions: at concentrations up to 1 μM

Bovine brain tubulin, sequence (Q6B856 whole entry): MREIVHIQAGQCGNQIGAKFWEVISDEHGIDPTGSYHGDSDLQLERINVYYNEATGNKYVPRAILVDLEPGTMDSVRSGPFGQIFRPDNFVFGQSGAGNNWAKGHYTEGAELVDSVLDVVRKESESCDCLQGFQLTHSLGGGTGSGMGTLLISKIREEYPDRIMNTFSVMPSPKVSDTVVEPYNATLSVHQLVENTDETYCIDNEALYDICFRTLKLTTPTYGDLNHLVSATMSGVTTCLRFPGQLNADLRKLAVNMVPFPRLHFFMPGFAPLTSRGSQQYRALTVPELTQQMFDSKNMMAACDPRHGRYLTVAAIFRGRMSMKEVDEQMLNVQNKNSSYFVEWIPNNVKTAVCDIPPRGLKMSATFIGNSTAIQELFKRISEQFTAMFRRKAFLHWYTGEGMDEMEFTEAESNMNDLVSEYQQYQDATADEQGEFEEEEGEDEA
Bovine brain tubulin, sequence (P81947 whole entry): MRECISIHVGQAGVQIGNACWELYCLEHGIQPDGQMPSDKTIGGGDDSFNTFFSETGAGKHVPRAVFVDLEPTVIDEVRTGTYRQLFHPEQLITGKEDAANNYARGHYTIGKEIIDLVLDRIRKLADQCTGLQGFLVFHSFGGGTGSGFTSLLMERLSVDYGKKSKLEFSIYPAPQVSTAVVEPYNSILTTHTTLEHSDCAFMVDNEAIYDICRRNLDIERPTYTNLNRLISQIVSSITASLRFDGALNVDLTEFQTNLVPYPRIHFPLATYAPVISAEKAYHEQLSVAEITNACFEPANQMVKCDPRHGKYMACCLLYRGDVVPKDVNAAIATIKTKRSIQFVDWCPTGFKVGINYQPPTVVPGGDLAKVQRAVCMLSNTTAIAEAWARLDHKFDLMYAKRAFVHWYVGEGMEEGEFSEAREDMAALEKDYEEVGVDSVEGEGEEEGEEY

SMILES	IC50 [1] [nM]	further results
COc1cc(C(=O)c2c[nH]c(-c3c[nH]c4ccccc34)n2)cc2c1OC=CO2 [13f, (2-(1H-Indol-3-yl)-1H-imidazol-5-yl)(8-methoxybenzo[b][1,4]-diOXin-6-yl)methanone]	1.1 to 3.3	tubulin polymerization Vmax (Bovine brain tubulin): 0; apparent toxicity (mouse weights and activities) (A375 melanoma xenograft): without causing apparent toxicity
COc1cc(C(=O)c2c[nH]c(-c3cccc4[nH]ccc34)n2)cc2c1OC=CO2 [compound 19, (2-(1H-Indol-4-yl)-1H-imidazol-5-yl)(8-methoxybenzo[b][1,4]-diOXin-6-yl)methanone]	–	fold reduced antiproliferative activity compared to 13f ([1]; compared with 13f): ~ 11 fold
COc1cc(C(=O)c2c[nH]c(-c3c[nH]c4cccc(C)c34)n2)cc2c1OC=CO2 [compound 25, (8-Methoxybenzo[b][1,4]dioxin-6-yl) (2-(4-methyl-1H-indol-3-yl)-1H-imidazol-5-yl)methanone]	6.1 to 8.8	–
CC(=O)O[C@H]1C(=O)[C@@]2(C)[C@H]([C@H](OC(=O)c3ccccc3)[C@]3(O)C[C@H](OC(=O)[C@H](O)[C@@H](NC(=O)c4ccccc4)c4ccccc4)C(C)=C1C3(C)C)[C@]1(OC(C)=O)CO[C@@H]1C[C@@H]2O [paclitaxel]	–	effect in DU145/TxR cells [2]: no effect was observed at all

More lines, main results first:

IC50 [1] [nM]	SMILES	further results
3.5 to 5.6	COc1cc(C(=O)c2c[nH]c(-c3c[nH]c4ccccc34)n2)cc2c1OCO2 [13d, (2-(1H-Indol-3-yl)-1H-imidazol-5-yl)(7-methoxybenzo[d][1,3]-dioxol-5-yl)methanone]	fold more active than 13b ([1]; antiproliferative IC50 compared with 13b): 30 fold; fold more potent than 13c ([1]; antiproliferative IC50 compared with 13c): ~ 4 fold
119 to 218	O=C(c1ccc2c(c1)OCCO2)c1c[nH]c(-c2c[nH]c3ccccc23)n1 [13a, (2-(1H-Indol-3-yl)-1H-imidazol-5-yl)(2,3-dihydrobenzo[b][1,4]-dioxin-6-yl)methanone]	–
32.2 to 47.7	COc1cc(C(=O)c2c[nH]c(-c3c[nH]c4ccccc34)n2)cc2c1OCCCO2 [13e, (2-(1H-Indol-3-yl)-1H-imidazol-5-yl)(9-methoxy-3,4-dihydro-2H-benzo[b][1,4]dioxepin-7-yl)methanone]	–
11.3 to 29.2	COc1cc(C(=O)c2c[nH]c(-c3c[nH]c4ccccc34)n2)cc2c1OCCO2 [13c, (2-(1H-Indol-3-yl)-1H-imidazol-5-yl)(8-methoxy-2,3-dihydrobenzo[b][1,4]dioxin-6-yl)methanone]	–
